In patent publication US9944699B2, “In vitro method for identifying compounds of the Nav 1.9 sodium channel intended for the treatment of an inflammatory skin disease” (GALDERMA RESEARCH & DEVELOPMENT, priority 2013, dated 2018):
Entries after “also recorded” stand apart in the source; their conditions may differ.

Legend:
[1] = target: Nav 1.5 (Homo sapiens, UniProt Q14524); settings: cited from earlier work
[2] = target: Nav 1.9 (Homo sapiens, UniProt Q9UI33); settings: cited from earlier work
Sequence of Nav 1.9 (Q9UI33 whole entry, looked up): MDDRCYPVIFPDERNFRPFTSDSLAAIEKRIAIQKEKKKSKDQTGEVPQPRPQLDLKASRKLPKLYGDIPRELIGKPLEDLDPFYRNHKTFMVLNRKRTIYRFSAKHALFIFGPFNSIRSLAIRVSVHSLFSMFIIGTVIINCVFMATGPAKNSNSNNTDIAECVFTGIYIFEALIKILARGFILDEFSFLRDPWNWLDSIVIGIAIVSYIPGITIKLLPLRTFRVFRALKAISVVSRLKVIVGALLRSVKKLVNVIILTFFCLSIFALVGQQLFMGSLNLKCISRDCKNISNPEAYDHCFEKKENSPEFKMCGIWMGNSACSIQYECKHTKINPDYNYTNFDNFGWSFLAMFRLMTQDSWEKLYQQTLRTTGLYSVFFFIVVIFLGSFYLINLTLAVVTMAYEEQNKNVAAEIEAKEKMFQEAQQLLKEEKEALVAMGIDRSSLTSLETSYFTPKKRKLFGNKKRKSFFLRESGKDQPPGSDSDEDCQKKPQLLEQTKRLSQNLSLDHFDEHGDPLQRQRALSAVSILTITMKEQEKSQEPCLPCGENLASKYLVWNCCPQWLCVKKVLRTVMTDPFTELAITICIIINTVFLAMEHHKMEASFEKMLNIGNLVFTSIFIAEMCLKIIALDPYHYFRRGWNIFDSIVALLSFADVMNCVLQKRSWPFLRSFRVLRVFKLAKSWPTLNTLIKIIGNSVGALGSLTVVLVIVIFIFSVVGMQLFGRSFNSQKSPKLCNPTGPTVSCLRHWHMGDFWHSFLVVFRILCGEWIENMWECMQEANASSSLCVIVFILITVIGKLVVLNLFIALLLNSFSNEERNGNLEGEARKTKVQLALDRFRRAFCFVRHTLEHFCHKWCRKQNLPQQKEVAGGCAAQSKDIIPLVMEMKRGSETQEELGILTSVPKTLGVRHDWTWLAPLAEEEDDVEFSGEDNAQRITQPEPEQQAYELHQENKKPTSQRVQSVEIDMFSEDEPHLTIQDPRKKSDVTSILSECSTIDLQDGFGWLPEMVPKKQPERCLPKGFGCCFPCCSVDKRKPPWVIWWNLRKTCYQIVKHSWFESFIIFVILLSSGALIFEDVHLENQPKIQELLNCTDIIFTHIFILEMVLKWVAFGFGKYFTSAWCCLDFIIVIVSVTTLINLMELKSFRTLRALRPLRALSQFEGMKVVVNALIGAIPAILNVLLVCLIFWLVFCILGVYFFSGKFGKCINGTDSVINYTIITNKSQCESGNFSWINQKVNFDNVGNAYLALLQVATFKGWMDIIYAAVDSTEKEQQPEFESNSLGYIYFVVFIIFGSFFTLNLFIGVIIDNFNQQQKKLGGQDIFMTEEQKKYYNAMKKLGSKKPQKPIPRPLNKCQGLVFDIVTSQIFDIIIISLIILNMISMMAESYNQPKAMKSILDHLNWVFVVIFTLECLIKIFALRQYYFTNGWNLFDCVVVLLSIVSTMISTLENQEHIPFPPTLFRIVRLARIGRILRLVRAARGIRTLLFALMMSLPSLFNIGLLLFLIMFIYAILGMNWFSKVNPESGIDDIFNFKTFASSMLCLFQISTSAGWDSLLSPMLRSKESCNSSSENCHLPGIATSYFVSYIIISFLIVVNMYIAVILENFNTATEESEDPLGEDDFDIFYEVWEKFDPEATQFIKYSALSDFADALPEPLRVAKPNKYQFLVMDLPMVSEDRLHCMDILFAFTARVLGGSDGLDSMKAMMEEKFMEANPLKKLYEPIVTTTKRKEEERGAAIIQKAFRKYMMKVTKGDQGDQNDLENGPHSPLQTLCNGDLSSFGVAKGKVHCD

[3] = target: Nav 1.8 (Homo sapiens, UniProt Q9Y5Y9); settings: cited from earlier work
[4] = test system: primary cultures of neurones from spinal ganglia of KO mice for Nav 1.9; test: Release of CGRP by primary neurone cultures after treatment with capsaicin (ELISA), Nav 1.9 KO mice; format: cell-based, mouse; settings: capsaicin 300 nM, 15 min; neurone cultures from Nav 1.9 KO mice; versus without treatment

Sequence of Nav 1.5 (Q14524 whole entry, looked up): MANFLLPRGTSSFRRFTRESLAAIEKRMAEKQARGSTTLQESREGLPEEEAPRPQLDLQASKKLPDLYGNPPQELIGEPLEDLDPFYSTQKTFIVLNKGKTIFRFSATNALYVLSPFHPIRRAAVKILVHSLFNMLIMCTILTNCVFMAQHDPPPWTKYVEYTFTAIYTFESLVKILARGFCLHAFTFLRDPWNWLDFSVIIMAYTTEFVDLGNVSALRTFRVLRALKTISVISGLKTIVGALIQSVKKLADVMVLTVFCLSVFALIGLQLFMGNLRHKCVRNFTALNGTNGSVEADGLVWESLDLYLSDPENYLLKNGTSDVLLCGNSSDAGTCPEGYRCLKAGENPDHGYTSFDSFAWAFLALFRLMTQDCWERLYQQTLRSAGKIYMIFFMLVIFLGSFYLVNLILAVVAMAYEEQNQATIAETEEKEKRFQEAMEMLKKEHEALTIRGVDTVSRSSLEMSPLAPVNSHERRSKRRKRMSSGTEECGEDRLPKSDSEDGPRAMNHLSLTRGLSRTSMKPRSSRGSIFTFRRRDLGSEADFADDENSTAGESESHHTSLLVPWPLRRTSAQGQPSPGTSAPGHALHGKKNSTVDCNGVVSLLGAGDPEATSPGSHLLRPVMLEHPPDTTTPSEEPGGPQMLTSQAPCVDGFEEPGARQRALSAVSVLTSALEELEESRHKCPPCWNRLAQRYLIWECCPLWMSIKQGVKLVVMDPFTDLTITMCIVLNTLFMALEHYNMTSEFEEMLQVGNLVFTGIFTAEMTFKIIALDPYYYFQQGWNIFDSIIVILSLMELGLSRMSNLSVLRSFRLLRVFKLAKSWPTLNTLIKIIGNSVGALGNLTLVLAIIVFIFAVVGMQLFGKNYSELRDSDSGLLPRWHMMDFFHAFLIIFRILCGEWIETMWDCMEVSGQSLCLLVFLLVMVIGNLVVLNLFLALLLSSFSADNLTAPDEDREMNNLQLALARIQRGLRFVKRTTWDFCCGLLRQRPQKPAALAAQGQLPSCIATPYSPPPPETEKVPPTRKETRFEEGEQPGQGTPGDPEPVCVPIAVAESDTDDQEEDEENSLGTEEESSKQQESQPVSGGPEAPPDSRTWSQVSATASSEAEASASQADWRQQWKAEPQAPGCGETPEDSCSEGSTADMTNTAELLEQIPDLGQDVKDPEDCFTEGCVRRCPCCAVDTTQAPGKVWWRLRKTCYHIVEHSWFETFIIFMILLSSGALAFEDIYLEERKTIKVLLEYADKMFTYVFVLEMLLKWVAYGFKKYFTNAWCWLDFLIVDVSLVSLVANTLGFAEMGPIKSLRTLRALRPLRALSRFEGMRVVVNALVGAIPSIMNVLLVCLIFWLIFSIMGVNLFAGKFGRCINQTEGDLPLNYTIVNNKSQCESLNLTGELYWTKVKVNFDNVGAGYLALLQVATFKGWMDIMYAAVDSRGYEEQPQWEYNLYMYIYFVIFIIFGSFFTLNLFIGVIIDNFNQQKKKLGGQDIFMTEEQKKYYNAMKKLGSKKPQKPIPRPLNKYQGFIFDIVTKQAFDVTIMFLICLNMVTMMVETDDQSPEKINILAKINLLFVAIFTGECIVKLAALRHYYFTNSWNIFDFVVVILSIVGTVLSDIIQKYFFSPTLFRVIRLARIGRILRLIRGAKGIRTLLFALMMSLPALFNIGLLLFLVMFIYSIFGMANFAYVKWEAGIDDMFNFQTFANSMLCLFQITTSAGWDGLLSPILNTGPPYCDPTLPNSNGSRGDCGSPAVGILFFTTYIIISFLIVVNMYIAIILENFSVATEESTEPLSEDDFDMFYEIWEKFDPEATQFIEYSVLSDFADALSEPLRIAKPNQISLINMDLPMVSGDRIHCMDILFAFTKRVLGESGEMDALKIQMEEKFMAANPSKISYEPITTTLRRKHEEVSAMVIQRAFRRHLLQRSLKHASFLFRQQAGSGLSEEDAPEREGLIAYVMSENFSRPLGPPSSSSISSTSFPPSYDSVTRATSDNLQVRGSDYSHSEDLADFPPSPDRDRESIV

| SMILES | sensitivity to tetrodotoxin (TTX) [1] | sensitivity to tetrodotoxin (TTX) [2] | EC50 ([2]; read-out: EC50 of the TTX for Nav 1.9) [µM] | sensitivity to tetrodotoxin (TTX) [3] | variation in the amount of CGRP released in the supernatant [4] |
| --- | --- | --- | --- | --- | --- |
| NC1=N[C@H](O)[C@H]2[C@H]3O[C@]4(O)O[C@@H]([C@@H](O)[C@@]2(N1)[C@@H]4O)[C@]3(O)CO [TTX, tetrodotoxin] | resistant | resistant | ~200 | resistant |  |
| COc1cc(CNC(=O)CCCC/C=C/C(C)C)ccc1O [capsaicin] |  |  |  |  | no variation; also recorded: no increase |
